Test results taken from patent publication US4308210A, “Nanaomycin B and therapeutic compositions containing same” (The Kitasato Institute, priority 1976, dated 1981).
Values after ≈ are worked out from the molar mass of the structure shown. “Also recorded” adds a separate entry of the source.

Tests used:
[1] = tested on: Xanthomonas oryzae N-5824; assay: microbe, parasite or virus in culture; assay type: cell-based; details: N5824, 48 h, pH 7
Trichophyton violaceum [2] = assay: Antimicrobial spectrum, MIC, potato agar; assay type: cell-based; details: 96 h, potato agar (pH 6.4, 4 days, 27° C.)
Sarcina lutea PCI 1001 = assay: Antimicrobial spectrum, MIC, nutrient agar; assay type: cell-based; details: Micrococcus luteus, PCI1001, 48 h; nutrient agar (pH 7.0, 2 days, 37° C.)
Mycoplasma gallinarum = assay: Antimicrobial spectrum, MIC, PPLO agar; assay type: cell-based; details: Mycoplasmopsis gallinarum, 192 h, Hokken PPLO agar (pH 7.8, 8 days, 37° C.)
Description: (§1) H Hokken PPLO agar (pH 7.8, 8 days, 37° C.)
(§2) MIC Minimal inhibitory concentration

Mycoplasma iners = assay: Antimicrobial spectrum, MIC, PPLO agar; assay type: cell-based; details: Mycoplasmopsis iners, 192 h; Hokken PPLO agar (pH 7.8, 8 days, 37° C.)
Description: as §1, §2

[3] = Conversion of nanaomycin B into nanaomycin A in culture medium or living bodies
[4] = tested on: Staphylococcus aureus FDA 209P (JC-1); assay: Antimicrobial spectrum, MIC, nutrient agar; assay type: cell-based; details: FDA209P, 48 h, nutrient agar (pH 7.0, 2 days, 37° C.)
[5] = tested on: Aspergillus niger ATCC 6275; assay: Antimicrobial spectrum, MIC, potato agar; assay type: cell-based; details: ATCC6275, 96 h, potato agar (pH 6.4, 4 days, 27° C.)
Description: (§3) P potato agar (pH 6.4, 4 days, 27° C.)
as §2

Microsporum gypseum 704 = assay: Antimicrobial spectrum, MIC, potato agar; assay type: cell-based; details: Nannizzia gypsea, 704, 96 h; potato agar (pH 6.4, 4 days, 27° C.)
Description: as §3, §2

Saccharomyces sake [6] = assay: Antimicrobial spectrum, MIC, potato agar; assay type: cell-based; details: 96 h, potato agar (pH 6.4, 4 days, 27° C.)
Description: as §3, §2

[7] = tested on: Tricophyton metagrophytes; assay: Treatment of dermatomycosis at the back of guinea pigs; assay type: in vivo; details: 0.01-1% solution in propylene glycol-ethanol (3:1, v/v), once daily for 8 days
Acute toxicity, LD50 = details: in vivo, ip; intra-penetrial injection into mouse
Description: Accordingly, it can be said that nanaomycin B represents a new antibiotic which may be used as a medicament for human beings and animals.

[8] = tested on: Gram-positive bacteria such as, for example Staphylococcus aureus; assay: Growth inhibition of Gram-positive bacteria (text summary of Table 1); assay type: cell-based
mycoplasma [9] = assay: Activity against mycoplasma; assay type: cell-based; details: in words
Description: as §1
E Eiken PPLO agar (pH 7.8, 8 days, 37° C.)
as §2

Candida albicans = assay: Antifungal activity, agar dilution method; assay type: cell-based; details: Candida albicans, 96 h, potato agar, pH 6.4, 27° C., 4 days, read-out: Minimal Inhibitory Con.
Description: (§4) Minimal inhibitory concentration is assayed by agar dilution method
(§5) (potato agar, pH 6.4, 27° C., 4 days)

Trichophyton rubrum [10] = assay: Antifungal activity, agar dilution method; assay type: cell-based; details: Trichophyton rubrum, 96 h, potato agar, pH 6.4, 27° C., 4 days, read-out: Minimal Inhibitory Con.
Description: as §4, §5

Trichophyton asteroides = assay: Antifungal activity, agar dilution method; assay type: cell-based; details: Trichophyton, 96 h, potato agar, pH 6.4, 27° C., 4 days, read-out: Minimal Inhibitory Con.
Description: as §4, §5

Aspergillus niger = assay: Antifungal activity, agar dilution method; assay type: cell-based; details: Aspergillus niger, 96 h, potato agar, pH 6.4, 27° C., 4 days, read-out: Minimal Inhibitory Con.
Description: as §4, §5

Aspergillus fumigatus = assay: Antifungal activity, agar dilution method; assay type: cell-based; details: Aspergillus fumigatus, 96 h, potato agar, pH 6.4, 27° C., 4 days, read-out: Minimal Inhibitory Con.
Description: as §4, §5

Saccharomyces sake [11] = assay: Antifungal activity, agar dilution method; assay type: cell-based; details: Saccharomyces, 96 h, potato agar, pH 6.4, 27° C., 4 days, read-out: Minimal Inhibitory Con.
Description: as §4, §5

Trichophyton ferrugineum = assay: Antifungal activity, agar dilution method; assay type: cell-based; details: Microsporum ferrugineum, 96 h, potato agar, pH 6.4, 27° C., 4 days, read-out: Minimal Inhibitory Con.
Description: as §4, §5

Trichophyton violaceum [12] = assay: Antifungal activity, agar dilution method; assay type: cell-based; details: Trichophyton violaceum, 96 h, potato agar, pH 6.4, 27° C., 4 days, read-out: Minimal Inhibitory Con.
Description: as §4, §5

Microsporum gypseum = assay: Antifungal activity, agar dilution method; assay type: cell-based; details: Nannizzia gypsea, 96 h, potato agar, pH 6.4, 27° C., 4 days, read-out: Minimal Inhibitory Con.
Description: as §4, §5

Trichophyton schoenleini = assay: Antifungal activity, agar dilution method; assay type: cell-based; details: Trichophyton, 96 h, potato agar, pH 6.4, 27° C., 4 days, read-out: Minimal Inhibitory Con.
Description: as §4, §5

[13] = tested on: Trichophyton interdigitale; assay: Antifungal activity, agar dilution method; assay type: cell-based; details: Trichophyton interdigitale, 96 h, potato agar, pH 6.4, 27° C., 4 days, read-out: Minimal Inhibitory Con.
Description: as §4, §5

Trichophyton rubrum [14] = assay: Antimicrobial spectrum, MIC, potato agar; assay type: cell-based; details: 96 h, potato agar (pH 6.4, 4 days, 27° C.)
mycoplasma [15] = assay: Antimycoplasma activity, paper disc method; assay type: cell-based
Description: Inhibitory zone is assayed by paper disc method (Eiken PPLO agar, pH 7.8,

CC1OC(CC(=O)O)CC2C(=O)c3cccc(O)c3C(=O)C12O (stereo not drawn) [Nanaomycin B]
MIC [1]: 125 µg/mL (≈ 390 µM)
MIC (Trichophyton violaceum [2]): 3.1 µg/mL (≈ 9.68 µM)
MIC (Sarcina lutea PCI 1001): 2 µg/mL (≈ 6.24 µM)
MIC (Mycoplasma gallinarum): 3.12 µg/mL (≈ 9.74 µM)
MIC (Mycoplasma iners): 3.12 µg/mL (≈ 9.74 µM)
conversion into nanaomycin A in a culture medium or in living bodies [3]: converted into nanaomycin A
MIC [4]: 2 µg/mL (≈ 6.24 µM)
MIC [5]: 62.5 µg/mL (≈ 195 µM)
MIC (Microsporum gypseum 704): 12.5 µg/mL (≈ 39 µM)
MIC (Saccharomyces sake [6]): 62.5 µg/mL (≈ 195 µM)
therapeutic effect on erythema and scales [7]: excellent therapeutic effect
LD50 (Acute toxicity, LD50): 169 mg/kg
MIC ([8]; Staphylococcus aureus, summary of Table 1, read-out: growth inhibited at a concentration): 2 to 8 µg/mL (≈ 6.24 to 25 µM)
activity on Gram-positive bacteria ([8]; in words): active
activity against mycoplasma (mycoplasma [9]): high activity; also recorded: especially strong activity
MIC (Candida albicans): > 100 µg/mL
MIC (Trichophyton rubrum [10]): 6.3 µg/mL (≈ 19.7 µM)
MIC (Trichophyton asteroides): 12.5 µg/mL (≈ 39 µM)
MIC (Aspergillus niger): > 100 µg/mL
MIC (Aspergillus fumigatus): 50 µg/mL (≈ 156 µM)
MIC (Saccharomyces sake [11]): > 100 µg/mL
MIC (Trichophyton ferrugineum): 6.3 µg/mL (≈ 19.7 µM)
MIC (Trichophyton violaceum [12]): 6.3 µg/mL (≈ 19.7 µM)
MIC (Microsporum gypseum): 12.5 µg/mL (≈ 39 µM)
MIC (Trichophyton schoenleini): 0.4 µg/mL (≈ 1.25 µM)
MIC [13]: 12.5 µg/mL (≈ 39 µM)
MIC (Trichophyton rubrum [14]): 3.1 µg/mL (≈ 9.68 µM)
zone of inhibition at 10 µg/mL (mycoplasma [15]; Mycoplasma, 24 h, 10 μg/ml, Eiken PPLO agar, pH 7.8, 37° C., 1 day, read-out: Inhibitory Zone): 22.7 mm
zone of inhibition at 100 µg/mL (mycoplasma [15]; Mycoplasma, 24 h, 100 μg/ml, Eiken PPLO agar, pH 7.8, 37° C., 1 day, read-out: Inhibitory Zone): 32.6 mm
antimycoplasma activity compared with ethylkalafunginate and deoxyfrenolicin (mycoplasma [15]; in words): superior
